Source: the supplement of paper PMC10307832

Assays:
Assay in all cases: relative viability (nuclei count vs DMSO), 5 days (fraction); higher = more cells survive
KIN001-266 + AZD7762 = compound: CCN1CCC(CC1)N2C=C(N=N2)CNC3=CC4=C(C(=CN=C4C(=C3)Cl)C#N)NC5=CC(=C(C=C5)F)Cl [KIN001-266] + NC(=O)Nc1cc(-c2cccc(F)c2)sc1C(=O)N[C@H]1CCCNC1 [AZD7762] (partner 0.2 µM)
Summary of the method: (§1)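 Lung cancer cell lines in 1536-well plates got either a single drug or a fixed anchor-drug dose together with five library-drug doses (not always all listed) in √10 steps, by pin tool, on the day after seeding. Nuclei were counted after 5 days, and relative viability is the treated-to-vehicle ratio of nuclei counts. Values are medians of duplicate plates.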

KIN001-266 + Phenformin = compound: CCN1CCC(CC1)N2C=C(N=N2)CNC3=CC4=C(C(=CN=C4C(=C3)Cl)C#N)NC5=CC(=C(C=C5)F)Cl [KIN001-266] + N=C(N)NC(=N)NCCc1ccccc1 [Phenformin] (partner 250 µM)
Summary of the method: as §1

KIN001-266 + Pictilisib = compound: CCN1CCC(CC1)N2C=C(N=N2)CNC3=CC4=C(C(=CN=C4C(=C3)Cl)C#N)NC5=CC(=C(C=C5)F)Cl [KIN001-266] + CS(=O)(=O)N1CCN(Cc2cc3nc(-c4cccc5[nH]ncc45)nc(N4CCOCC4)c3s2)CC1 [Pictilisib] (partner 1 µM)
Summary of the method: as §1

KIN001-266 + Alpelisib = compound: CCN1CCC(CC1)N2C=C(N=N2)CNC3=CC4=C(C(=CN=C4C(=C3)Cl)C#N)NC5=CC(=C(C=C5)F)Cl [KIN001-266] + Cc1nc(NC(=O)N2CCC[C@H]2C(N)=O)sc1-c1ccnc(C(C)(C)C(F)(F)F)c1 [Alpelisib] (partner 2 µM)
Summary of the method: as §1

Cell Line	relative viability (KIN001-266 + AZD7762; first compound 0.08 µM)	relative viability (KIN001-266 + AZD7762; first compound 0.253 µM)	relative viability (KIN001-266 + AZD7762; first compound 0.8 µM)	relative viability (KIN001-266 + AZD7762; first compound 2.53 µM)	relative viability (KIN001-266 + AZD7762; first compound 8 µM)	relative viability (KIN001-266 + Phenformin; first compound 0.08 µM)	relative viability (KIN001-266 + Phenformin; first compound 0.253 µM)	relative viability (KIN001-266 + Phenformin; first compound 0.8 µM)	relative viability (KIN001-266 + Phenformin; first compound 2.53 µM)	relative viability (KIN001-266 + Phenformin; first compound 8 µM)	relative viability (KIN001-266 + Pictilisib; first compound 0.08 µM)	relative viability (KIN001-266 + Pictilisib; first compound 0.253 µM)	relative viability (KIN001-266 + Pictilisib; first compound 0.8 µM)	relative viability (KIN001-266 + Pictilisib; first compound 2.53 µM)	relative viability (KIN001-266 + Pictilisib; first compound 8 µM)	relative viability (KIN001-266 + Alpelisib; first compound 0.08 µM)	relative viability (KIN001-266 + Alpelisib; first compound 0.253 µM)	relative viability (KIN001-266 + Alpelisib; first compound 0.8 µM)	relative viability (KIN001-266 + Alpelisib; first compound 2.53 µM)	relative viability (KIN001-266 + Alpelisib; first compound 8 µM)
NCI-H1395	0.404	0.453	0.399	0.375	0.391	0.453	0.421	0.503	0.417	0.442	0.693	0.843	0.614	0.522	0.575	1.07	1.06	1.23	0.955	1.05
NCI-H1437	1.12	1.16	1.12	1.1	0.963	0.346	0.272	0.286	0.291	0.251	0.357	0.464	0.413	0.359	0.177	0.997	1.06	0.961	0.858	0.495
NCI-H1651	0.46	0.44	0.376	0.328	0.49	0.355	0.383	0.316	0.508	0.325	0.582	0.601	0.51	0.633	0.435	1.05	0.949	1.01	0.99	0.865
NCI-H1666	0.921	0.799	0.744	0.826	0.767	0.547	0.627	0.573	0.581	0.574	0.608	0.523	0.49	0.367	0.347	0.985	0.999	0.901	0.887	0.696
NCI-H1734	0.566	0.635	0.438	0.631	0.461	0.416	0.387	0.405	0.357	0.321	0.521	0.452	0.454	0.418	0.43	0.686	0.686	0.546	0.716	0.704
NCI-H1755	0.408	0.492	0.425	0.452	0.43	0.643	0.62	0.625	0.621	0.549	0.463	0.447	0.387	0.458	0.398	1	0.895	0.95	0.843	0.816
NCI-H1792	0.825	0.66	0.738	0.902	0.516	0.26	0.223	0.17	0.123	0.265	0.312	0.282	0.325	0.305	0.265	0.715	0.752	0.695	0.8	0.669
NCI-H1793	0.482	0.541	–	0.276	0.376	0.418	0.324	0.25	0.352	0.251	0.287	0.332	0.305	0.253	0.322	0.829	0.624	0.822	0.897	0.572
